Results published in US20140051679A1, “KINASE INHIBITORS AND METHOD OF TREATING CANCER WITH SAME” (UNIVERISTY HEALTH NETWORKS, priority 2011, published 2014).
Where two headings read alike, the source gives them in different places.

Experiments:
[1] = molecular target: T1, human TTK (Homo sapiens, UniProt P33981); test: TTK inhibition assay (indirect ELISA); format: biochemical; conditions: GST-TTK 0.68 nM, 16 μM ATP; read-out: IC50 Ranges TTK
T1 construct: amino terminal GST fusion of full length human TTK; purchased Invitrogen
T1 sequence (P33981 1-857): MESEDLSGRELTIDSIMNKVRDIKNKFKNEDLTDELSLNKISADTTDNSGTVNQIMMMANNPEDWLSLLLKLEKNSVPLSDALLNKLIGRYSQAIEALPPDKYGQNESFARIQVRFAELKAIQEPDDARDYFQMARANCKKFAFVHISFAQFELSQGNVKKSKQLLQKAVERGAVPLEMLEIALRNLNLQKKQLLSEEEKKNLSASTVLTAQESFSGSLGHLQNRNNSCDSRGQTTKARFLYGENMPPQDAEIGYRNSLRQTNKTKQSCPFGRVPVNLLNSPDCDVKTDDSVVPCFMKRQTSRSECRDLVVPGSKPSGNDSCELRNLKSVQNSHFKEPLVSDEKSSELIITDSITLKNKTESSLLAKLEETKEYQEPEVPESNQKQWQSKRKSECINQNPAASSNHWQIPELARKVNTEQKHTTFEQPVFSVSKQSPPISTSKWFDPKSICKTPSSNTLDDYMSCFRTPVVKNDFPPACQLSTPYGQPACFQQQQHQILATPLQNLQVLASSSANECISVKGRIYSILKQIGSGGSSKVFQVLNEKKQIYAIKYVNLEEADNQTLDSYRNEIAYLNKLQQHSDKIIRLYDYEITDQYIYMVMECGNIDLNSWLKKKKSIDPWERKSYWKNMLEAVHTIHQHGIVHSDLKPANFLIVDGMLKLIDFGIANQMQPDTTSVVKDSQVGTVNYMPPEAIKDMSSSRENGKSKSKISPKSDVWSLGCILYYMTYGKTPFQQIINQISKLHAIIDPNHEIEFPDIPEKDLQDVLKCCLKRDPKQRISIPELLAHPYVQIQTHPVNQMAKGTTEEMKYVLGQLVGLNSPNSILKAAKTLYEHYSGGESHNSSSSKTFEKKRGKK

[2] = molecular target: T2, human PLK4 (Homo sapiens, UniProt O00444); test: PLK4 inhibition assay (indirect ELISA); format: biochemical; conditions: GST-PLK4 4 nM, 15 μM ATP; read-out: IC50 Ranges PLK4
T2 construct: amino terminal GST fusion of residues 1-391 of human PLK4; made in house; host or cells: E. coli
T2 sequence (O00444 1-391): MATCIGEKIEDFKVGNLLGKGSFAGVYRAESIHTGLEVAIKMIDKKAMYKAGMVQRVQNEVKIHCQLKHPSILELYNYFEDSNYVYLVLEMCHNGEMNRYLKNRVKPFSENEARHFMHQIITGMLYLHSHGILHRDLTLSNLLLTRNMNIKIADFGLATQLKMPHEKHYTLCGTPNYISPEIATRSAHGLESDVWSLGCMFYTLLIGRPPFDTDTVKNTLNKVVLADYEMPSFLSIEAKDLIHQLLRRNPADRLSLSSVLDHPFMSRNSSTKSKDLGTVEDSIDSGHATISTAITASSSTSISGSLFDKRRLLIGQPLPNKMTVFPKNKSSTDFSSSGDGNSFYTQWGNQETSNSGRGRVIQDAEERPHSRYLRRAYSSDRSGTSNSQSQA
How it was run: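 Compounds were tested either at a single 10 μM dose or across 10-point titrations (typically 0.5 to 0.001 μM), preincubated 15 min with 4 nM GST-PLK4 (human 1-391, dephosphorylated) before 15 μM ATP was added. MBP substrate phosphorylation over 30 min, pH 7.5 HEPES/MgCl2 buffer, read by HRP/TMB ELISA (450 nm). % inhibition vs. high-activity control; IC50 by logistic fit.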

[3] = molecular target: T3, Aurora B (Homo sapiens, UniProt Q96GD4); test: Aurora B inhibition assay (Z-Lyte); format: biochemical; conditions: 28 nM Aurora B, 128 μM ATP; read-out: IC50 Ranges Aurora B
T3 construct: purchased Invitrogen PV3970
T3 sequence (Q96GD4 whole entry): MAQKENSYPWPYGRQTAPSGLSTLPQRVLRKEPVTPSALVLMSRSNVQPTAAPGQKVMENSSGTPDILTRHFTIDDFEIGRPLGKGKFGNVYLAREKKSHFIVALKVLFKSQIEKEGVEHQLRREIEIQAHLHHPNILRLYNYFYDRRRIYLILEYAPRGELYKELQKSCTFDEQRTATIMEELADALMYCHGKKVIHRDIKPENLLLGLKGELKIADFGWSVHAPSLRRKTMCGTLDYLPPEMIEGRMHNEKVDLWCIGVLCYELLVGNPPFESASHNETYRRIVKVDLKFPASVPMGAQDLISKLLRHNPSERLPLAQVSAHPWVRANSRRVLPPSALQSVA
Experimental: Aurora B inhibition was determined using the Z-Lyte assay kit from Invitrogen. The assay was performed using the recommended manufacturer's instructions with 128 μM ATP and 28 nM Aurora B (Invitrogen cat #PV3970). The % inhibition values were determined according to the manufacturer's directions and IC50 values were obtained using a non-linear 4 point logistic curve fit (XLfit4, IDBS)

[4] = tested on: MDA-MB-231 breast cancer cells; test: Cell growth inhibition, Sulforhodamine B assay, MDA-MB-231; format: cell-based; conditions: Homo sapiens, 120 h, 5 days culture, SRB assay, read-out: Cell Line GI50 Range MDA-MB-231
Experimental: (§1) Breast cancer cells (MDA-MB-231, MDA-MB-468), colon cancer cells (HCT116, HT29) and ovarian cancer cells (PA-1, OVCAR-3) were seeded (1000 to 4000 in 80 μl per well depending on the cell growth rate) into 96 well plates 24 hours before compound overlay. Compounds were prepared as 10 mM stock solutions in 100% DMSO which were diluted with DMEM (Dulbecco's Modified Eagle's Medium) cell growth Medium (Invitrogen, Burlington, ON, Canada) containing 10% FBS (Fetal Bovine Serum) to concentrations ranging from 50 nM to 250 μM. Aliquots (20 μl) from each concentration were overlaid to 80 μl of the pre-seeded cells in the 96 well plates to make final concentrations of 10 nM to 50 μM. The cells were cultured for 5 days before the Sulforhodamine B assay (SRB) was performed to determine the compound's cell growth inhibition activity.
(§2) Sulforhodamine B (purchased from Sigma, Oakville, ON, Canada) is a water-soluble dye that binds to the basic amino acids of the cellular proteins. Thus, colorimetric measurement of the bound dye provides an estimate of the total protein mass that is related to the cell number. the cells are fixed in situ by gently aspirating off the culture media and adding 50 μl ice cold 10% Trichloroacetic Acid (TCA) per well and incubate at 4° C. for 30-60 min, The plates are washed with water five times and allowed to air dry for 5 min. Addition of 50 μl 0.4% (w/v) SRB solution in 1% (v/v) acetic acid to each well and incubatation for 30 min at RT completes the staining reaction. Following staining, plates are washed four times with 1% acetic acid to remove unbound dye and then allowed to air dry for 5 min. The stain is solubilized with 100 μl of 10 mM Tris pH 10.5 per well. Absorbance is read at 570 nm.
(§3) The percentage (%) of relative growth inhibition was calculated by comparing to DMSO treated only cells (100%). […] The GI50 was calculated using GraphPad PRISM software (GraphPad Software, Inc., San Diego, Calif., USA).

[5] = tested on: MDA-MB-468 breast cancer cells; test: Cell growth inhibition, Sulforhodamine B assay, MDA-MB-468; format: cell-based; conditions: 5 days culture, SRB assay, read-out: Cell Line GI50 Range MDA-MB-468
Experimental: as §1, §2, §3

[6] = tested on: HCT116 colon cancer cells; test: Cell growth inhibition, Sulforhodamine B assay, HCT116; format: cell-based; conditions: 5 days culture, SRB assay, read-out: Cell Line GI50 Range HCT116
[7] = tested on: HT29 colon cancer cells; test: Cell growth inhibition, Sulforhodamine B assay, HT29; format: cell-based; conditions: 5 days culture, SRB assay, read-out: Cell Line GI50 Range HT29
[8] = tested on: PA-1 ovarian cancer cells; test: Cell growth inhibition, Sulforhodamine B assay, PA-1; format: cell-based; conditions: 5 days culture, SRB assay, read-out: Cell Line GI50 Range PA-1

Row | Compound | IC50 [1] [µM] | IC50 [2] [µM] | IC50 [3] [µM] | GI50 [4] [µM] | GI50 ([5]; Homo sapiens, 120 h) [µM] | GI50 ([6]; Homo sapiens, HCT-116, 120 h) [µM] | GI50 ([7]; Homo sapiens, HT-29, 120 h) [µM] | GI50 ([8]; 120 h) [µM] | GI50 [5] [µM] | GI50 [6] [µM] | GI50 [7] [µM] | GI50 [8] [µM]
1 | COc1ccc(NC(=O)Nc2ccc3[nH]nc(-c4ccc(OC5CCN(C)CC5)cc4)c3c2)c(C)c1 [Example A81, 1-(4-methoxy-2-methylphenyl)-3-(3-(4-((1-methylpiperidin-4-yl)oxy)phenyl)-1H-indazol-5-yl)urea] | ≤ 5 | ≤ 5 | ≤ 5 | 5 to 20 | ≤ 5 | ≤ 5 | ≤ 5 | ≤ 5 |  |  |  | 
2 | CN1CCC(C(NC(=O)c2ccc3[nH]nc(-c4ccc(N5CCOCC5)cc4)c3c2)c2ccccc2)CC1 (stereo not drawn) [Example A85, N-((1-methylpiperidin-4-yl)(phenyl)methyl)-3-(4-morpholinophenyl)-1H-indazole-5-carboxamide] | ≤ 5 | ≤ 5 | ≤ 5 | ≤ 5 | ≤ 5 | ≤ 5 | ≤ 5 | ≤ 5 |  |  |  | 
3 | CCc1cccc(CC)c1NC(=O)Nc1ccc2[nH]nc(-c3ccc(N4CCOCC4)cc3)c2c1 [Example A86, 1-(2,6-diethylphenyl)-3-(3-(4-morpholinophenyl)-1H-indazol-5-yl)urea] | ≤ 5 | ≤ 5 | ≤ 5 | ≤ 5 | ≤ 5 | ≤ 5 | ≤ 5 | ≤ 5 |  |  |  | 
4 | CN1CCOc2ccc(-c3n[nH]c4ccc(NC(=O)C(c5ccsc5)N5CCCC5)cc34)cc2C1 (stereo not drawn) [Example A90, N-(3-(4-methyl-2,3,4,5-tetrahydrobenzo[f][1,4]oxazepin-7-yl)-1H-indazol-5-yl)-2-(pyrrolidin-1-yl)-2-(thiophen-3-yl)acetamide] | ≤ 5 | ≤ 5 | ≤ 5 | ≤ 5 | ≤ 5 | ≤ 5 | ≤ 5 | ≤ 5 |  |  |  | 
5 | O=C(NC(c1ccccc1)C1CCC1)c1ccc2[nH]nc(-c3ccc(N4CCC(O)CC4)cc3)c2c1 (stereo not drawn) [Example A100, N-(cyclobutyl(phenyl)methyl)-3-(4-(4-hydroxypiperidin-1-yl)phenyl)-1H-indazole-5-carboxamide] | ≤ 5 | ≤ 5 | ≤ 5 | ≤ 5 | ≤ 5 | ≤ 5 | ≤ 5 | ≤ 5 |  |  |  | 
6 | O=C(Nc1ccc2[nH]nc(-c3ccc(N4CCC(O)CC4)cc3)c2c1)C(c1ccccc1)C1CC1 (stereo not drawn) [Example A103, 2-cyclopropyl-N-(3-(4-(4-hydroxypiperidin-1-yl)phenyl)-1H-indazol-5-yl)-2-phenylacetamide] | ≤ 5 | ≤ 5 | ≤ 5 | ≤ 5 | ≤ 5 | ≤ 5 | ≤ 5 | ≤ 5 |  |  |  | 
7 | O=C(Nc1ccc2[nH]nc(-c3ccc(NC4CCC(O)CC4)cc3)c2c1)C(c1ccsc1)N1CCCC1 (stereo not drawn) [Example A105, rel-N-(3-(4-(((1r,4r)-4-hydroxycyclohexyl)amino)phenyl)-1H-indazol-5-yl)-2-(pyrrolidin-1-yl)-2-(thiophen-3-yl)acetamide] | ≤ 5 | ≤ 5 | ≤ 5 |  |  |  |  |  | ≤ 5 | ≤ 5 | ≤ 5 | ≤ 5
8 | COCCN1CCC(Oc2ccc(-c3n[nH]c4ccc(NC(=O)[C@H](OC)c5ccccc5)cc34)cc2)CC1 [Example A107, (R)-2-methoxy-N-(3-(4-((1-(2-methoxyethyl)piperidin-4-yl)oxy)phenyl)-1H-indazol-5-yl)-2-phenylacetamide] | ≤ 5 | ≤ 5 | ≤ 5 | 5 to 20 | ≤ 5 | ≤ 5 | ≤ 5 | ≤ 5 |  |  |  | 
9 | CC(C)(O)C1CCN(c2ccc(-c3n[nH]c4ccc(NC(=O)C(c5ccsc5)N5CCCC5)cc34)cc2)CC1 (stereo not drawn) [Example A111, N-(3-(4-(4-(2-hydroxypropan-2-yl)piperidin-1-yl)phenyl)-1H-indazol-5-yl)-2-(pyrrolidin-1-yl)-2-(thiophen-3-yl)acetamide] | ≤ 5 | ≤ 5 | ≤ 5 |  | ≤ 5 | ≤ 5 | ≤ 5 | ≤ 5 |  |  |  | 
10 | COC1CCN(c2ccc(-c3n[nH]c4ccc(NC(=O)C(c5ccsc5)N5CCCC5)cc34)cc2)CC1 (stereo not drawn) [Example A116, N-(3-(4-(4-methoxypiperidin-1-yl)phenyl)-1H-indazol-5-yl)-2-(pyrrolidin-1-yl)-2-(thiophen-3-yl)acetamide] | ≤ 5 | ≤ 5 | ≤ 5 | ≤ 5 | ≤ 5 | ≤ 5 | ≤ 5 | ≤ 5 |  |  |  | 
11 | O=C(NC(c1ccsc1)C1CC1)c1ccc2[nH]nc(-c3ccc(OC4CCN(CCO)CC4)cc3)c2c1 (stereo not drawn) [Example A117, N-(cyclopropyl(thiophen-3-methyl-3-yl)methyl)-3-(4-((1-(2-hydroxyethyl)piperidin-4-yl)oxy)phenyl)-1H-indazole-5-carboxamide] | ≤ 5 | ≤ 5 | ≤ 5 |  | ≤ 5 | ≤ 5 | ≤ 5 | ≤ 5 |  |  |  | 
12 | Cc1ccccc1C(NC(=O)c1ccc2[nH]nc(-c3ccc(N4CCOCC4)cc3)c2c1)C1CC1 (stereo not drawn) [Example A119, N-(cyclopropyl(o-tolyl)methyl)-3-(4-morpholinophenyl)-1H-indazole-5-carboxamide] | ≤ 5 | ≤ 5 | ≤ 5 |  | ≤ 5 | ≤ 5 | ≤ 5 | ≤ 5 |  |  |  | 
13 | O=C(Nc1ccc2[nH]nc(-c3ccc(N4CC(O)C4)cc3)c2c1)C(c1ccsc1)N1CCCC1 (stereo not drawn) [Example A120, N-(3-(4-(3-Hydroxyazetidin-1-yl)phenyl)-1H-indazol-5-yl)-2-(pyrrolidin-1-yl)-2-(thiophen-3-yl)acetamide] | ≤ 5 | ≤ 5 | ≤ 5 |  | ≤ 5 | ≤ 5 | ≤ 5 | ≤ 5 |  |  |  | 
